Values of other authors as cited in US20060084141A1, “Biosynthetic gene cluster for the maytansinoid antitumor agent ansamitocin” (priority 2001, published 2006).

How the values were obtained:
[1] = system: various murine leukemia cell lines; details: in vitro
[2] = system: human carcinoma and leukemia cell lines; details: in vitro
[3] = system: patients with different types of tumors; details: phase II trials

Question: Which dose inhibiting growth [1] does the source give for `COc1cc2cc(c1Cl)N(C)C(=O)C[C@H](OC(=O)[C@H](C)N(C)C(C)=O)[C@]1(C)O[C@H]1[C@H](C)[C@@H]1C[C@@](O)(NC(=O)O1)[C@H](OC)/C=C/C=C(\C)C2` [Maytansine] here?
Answer: 10^−3 to 10^−7 μg/ml

Question: And the dose inhibiting growth [2]?
Answer: 10^−3 to 10^−7 μg/ml

Question: What about the response rates [3] of the same compound?
Answer: Insignificant response rates

Question: And the tumor response (human cancer patients; phase I (early) trials)?
Answer: A few partial responses

Question: And the dose limiting toxicity (human cancer patients; phase I trials)?
Answer: dose limiting gastrointestinal toxicity and neurotoxicity

Question: And the myelosuppression (human cancer patients; phase I trials)?
Answer: modest levels of mylosuppression
